The target in the assay is nuclear factor-kappa B (NF-kB)-inducing kinase (NIK) (Homo sapiens (Human), UniProt Q99558). As to the kind of experiment: NIK enzyme inhibition assay (Transcreener ADP, NIK ADP-FP). In kind it is biochemical. The following applies: purified NIK 0.5 nM, 10 μM ATP, fluorescence polarization; read-out: NIK ADP-FP (Ki μM). (In fluorescence polarisation assays a small probe gives low polarisation when free and higher when bound to something large.)
Sequence of nuclear factor-kappa B (NF-kB)-inducing kinase (NIK) (Q99558 whole entry): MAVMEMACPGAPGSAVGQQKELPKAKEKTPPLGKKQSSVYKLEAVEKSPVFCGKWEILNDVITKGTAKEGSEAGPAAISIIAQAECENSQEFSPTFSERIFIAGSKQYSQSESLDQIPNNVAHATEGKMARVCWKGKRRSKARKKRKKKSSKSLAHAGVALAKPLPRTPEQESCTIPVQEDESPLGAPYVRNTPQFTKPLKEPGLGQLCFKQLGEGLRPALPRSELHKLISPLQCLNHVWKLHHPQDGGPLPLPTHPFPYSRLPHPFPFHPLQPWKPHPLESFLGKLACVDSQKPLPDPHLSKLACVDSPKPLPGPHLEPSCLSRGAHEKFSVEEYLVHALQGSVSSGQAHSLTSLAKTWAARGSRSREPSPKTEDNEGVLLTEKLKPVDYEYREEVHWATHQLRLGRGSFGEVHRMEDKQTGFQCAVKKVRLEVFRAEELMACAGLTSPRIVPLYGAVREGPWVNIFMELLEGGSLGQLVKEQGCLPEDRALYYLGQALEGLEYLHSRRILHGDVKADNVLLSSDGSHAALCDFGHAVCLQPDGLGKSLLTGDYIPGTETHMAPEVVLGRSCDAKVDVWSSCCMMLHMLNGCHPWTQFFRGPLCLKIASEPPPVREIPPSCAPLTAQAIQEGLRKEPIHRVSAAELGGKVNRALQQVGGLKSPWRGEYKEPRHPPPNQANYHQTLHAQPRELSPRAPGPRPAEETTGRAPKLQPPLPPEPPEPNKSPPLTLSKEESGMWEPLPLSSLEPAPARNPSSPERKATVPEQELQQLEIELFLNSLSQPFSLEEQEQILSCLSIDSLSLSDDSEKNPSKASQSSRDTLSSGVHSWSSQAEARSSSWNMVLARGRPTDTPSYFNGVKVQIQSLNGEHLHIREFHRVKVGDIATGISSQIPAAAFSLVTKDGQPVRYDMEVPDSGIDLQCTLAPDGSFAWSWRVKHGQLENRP

The Ki is a dissociation constant, usually derived from enzyme kinetics or from competition with a known ligand. As for `CN1CC[C@@](O)(C#Cc2ccnc(-n3nc(C(N)=O)c4c3CC(C)(C)CC4)c2)C1=O` [Compound 4, 1-[4-[2-[(3R)-3-hydroxy-1-methyl-2-oxo-pyrrolidin-3-yl]ethynyl]-2-pyridyl]-6,6-dimethyl-5,7-dihydro-4H-inda-zole-3-carboxamide], the inhibition constant (Ki) came to 0.00292 µM.

`CN1CC[C@@](O)(C#Cc2ccnc(-n3nc(C(N)=O)c4c3C[C@]3(C)C[C@@H]3C4)c2)C1=O` [Compound 5, (4aR,5aS)-1-[4-[2-[(3R)-3-hydroxy-1-methyl-2-oxo-pyrroli-din-3-yl]ethynyl]-2-pyri-dyl]-5a-methyl-4,4a,5,6-tetrahydrocyclopropa[f]inda-zole-3-carboxamide]: the inhibitory constant (Ki) amounted to 0.0139 µM.

`CN1CC[C@@](O)(C#Cc2ccnc(-n3nc(C(N)=O)c4c3CC(C)(C)[C@@H](OCc3ccccc3)C4)c2)C1=O` [Compound 7, (5S)-5-benzyloxy-1-[4-[2-[(3R)-3-hydroxy-1-methyl-2-oxo-pyrrolidin-3-yl]ethynyl]-2-pyridyl]-6,6-dimethyl-5,7-dihydro-4H-indazole-3-carboxamide]: the Ki amounted to 0.0455 µM.

With `CN1CC[C@@](O)(C#Cc2ccnc(-n3nc(C(N)=O)c4c3CC(C)(C)[C@H](OCc3ccccc3)C4)c2)C1=O` [Compound 8, (5R)-5-benzyloxy-1-[4-[2-[(3R)-3-hydroxy-1-methyl-2-oxo-pyrrolidin-3-yl]ethynyl]-2-pyridyl]-6,6-dimethyl-5,7-dihydro-4H-indazole-3-carboxamide], the Ki stood at 0.0724 µM.

For the compound `CN1CC[C@@](O)(C#Cc2ccnc(-n3nc(C(N)=O)c4c3CC(C)(C)[C@H](O)C4)c2)C1=O` [Compound 9, (5R)-5-hydroxy-1-[4-[2-[(3R)-3-hydroxy-1-methyl-2-oxo-pyrrolidin-3-yl]ethynyl]-2-pyridyl]-6,6-dimethyl-5,7-dihydro-4H-indazole-3-carboxamide], the inhibitory constant (Ki) was 0.0332 µM.

Turning to `CN1CC[C@@](O)(C#Cc2ccnc(-n3nc(C(N)=O)c4c3CC(C)(C)[C@@H](O)C4)c2)C1=O` [Compound 11, (5S)-5-hydroxy-1-[4-[2-[(3R)-3-hydroxy-1-methyl-2-oxo-pyrrolidin-3-yl]ethynyl]-2-pyridyl]-6,6-dimethyl-5,7-dihydro-4H-indazole-3-carboxamide], the inhibition constant (Ki) worked out at 0.0134 µM.

Regarding `CN1CC[C@@](O)(C#Cc2ccnc(-n3nc(C(N)=O)c4c3CCC[C@H]4NC(=O)C3CC3)c2)C1=O` [Compound 15, (4R)-4-(cyclopropanecarbo-nylamino)-1-[4-[2-[(3R)-3-hydroxy-1-methyl-2-oxo-pyrrolidin-3-yl]ethynyl]-2-pyridyl]-4,5,6,7-tetrahydroinda-zole-3-carboxamide], the inhibition constant Ki was 0.382 µM.

In the case of `CN1CC[C@@](O)(C#Cc2ccnc(-n3nc(C(N)=O)c4c3CCC[C@@H]4NC(=O)C3CC3)c2)C1=O` [Compound 17, (4S)-4-(cyclopropanecarbo-nylamino)-1-[4-[2-[(3R)-3-hydroxy-1-methyl-2-oxo-pyrrolidin-3-yl]ethynyl]-2-pyridyl]-4,5,6,7-tetrahydroin-dazole-3-carboxamide], the Ki stood at 0.146 µM.

Turning to `CC(=O)N1CCc2c(c(C(N)=O)nn2-c2cccc(C#C[C@]3(O)CCN(C)C3=O)c2)C1` [Compound 19, 5-acetyl-1-[3-[2-[(3R)-3-hy-droxy-1-methyl-2-oxo-pyrroli-din-3-yl]ethynyl]phenyl]-6,7-dihydro-4H-pyrazolo[4,3-c]pyridine-3-carboxamide], the Ki came to 0.0102 µM.

Turning to `CN1CC[C@@](O)(C#Cc2cccc(-n3nc(C(N)=O)c4c3CCN(C(=O)C3CC3)C4)c2)C1=O` [Compound 20, 5-(cyclopropanecarbonyl)-1-[3-[2-[(3R)-3-hydroxy-1-methyl-2-oxo-pyrrolidin-3-yl]ethynyl]phenyl]-6,7-dihydro-4H-pyrazolo[4,3-c]pyri-dine-3-carboxamide], the inhibition constant Ki amounted to 0.00489 µM.

For the compound `CN1CC[C@@](O)(C#Cc2cccc(-n3nc(C(N)=O)c4c3CCNC4)c2)C1=O` [Compound 21, 1-[3-[2-[(3R)-3-hydroxy-1-methyl-2-oxo-pyrrolidin-3-yl]ethynyl]phenyl]-4,5,6,7-tetra-hydropyrazolo[4,3-c]pyri-dine-3-carboxamide], the Ki came to 0.233 µM.

`COc1cccc2c(C(N)=O)nn(-c3cccc(C#C[C@]4(O)CCN(C)C4=O)c3)c12` [Compound 23, 1-[3-[2-[(3R)-3-hydroxy-1-methyl-2-oxo-pyrrolidin-3-yl]ethynyl]phenyl]-7-methoxy-indazole-3-carboxamide]: the Ki was determined as 0.00975 µM.

For `CN1CC[C@@](O)(C#Cc2cccc(-n3nc(C(N)=O)c4c3CCCC4(F)F)c2)C1=O` [Compound 24, 4,4-difluoro-1-[3-[2-[(3R)-3-hydroxy-1-methyl-2-oxo-pyrrolidin-3-yl]ethynyl]phe-nyl]-6,7-dihydro-5H-indazole-3-carboxamide], the Ki was found to be 0.00762 µM.

Turning to `C[C@@](O)(C#Cc1cccc(-n2nc(C(N)=O)c3ccccc32)c1)c1ncccn1` [Compound 28, 1-[3-[(3R)-3-hydroxy-3-pyri-midin-2-yl-but-1-ynyl]phe-nyl]indazole-3-carboxamide], the inhibition constant (Ki) amounted to 0.0352 µM.

In the case of `Cc1nc([C@](C)(O)C#Cc2cccc(-n3nc(C(N)=O)c4ccccc43)c2)no1` [Compound 29, 1-[3-[(3R)-3-hydroxy-3-(5-methyl-1,2,4-oxadiazol-3-yl)but-1-ynyl]phenyl]indazole-3-carboxamide], the Ki was 0.0367 µM.

`CN1CC[C@@](O)(C#Cc2cccc(-n3nc(C(N)=O)c4c3CCC[C@H]4NC(=O)C3CC3)c2)C1=O` [Compound 32, (4R)-4-(cyclopropanecarbonyl-amino)-1-[3-[2-[(3R)-3-hydroxy-1-methyl-2-oxo-pyrroli-din-3-yl]ethynyl]phenyl]-4,5,6,7-tetrahydroindazole-3-carboxamide]: the Ki came to 1.04 µM.

With `CN1CC[C@@](O)(C#Cc2cccc(-n3nc(C(N)=O)c4c3CCN(C3COC3)C4)c2)C1=O` [Compound 33, 1-[3-[2-[(3R)-3-hydroxy-1-methyl-2-oxo-pyrrolidin-3-yl]ethynyl]phenyl]-5-(oxetan-3-yl)-6,7-dihydro-4H-pyra-zolo[4,3-c]pyridine-3-carbox-amide], the Ki turned out to be 0.259 µM.

As to `CN1CC[C@@](O)(C#Cc2cccc(-n3nc(C(N)=O)c4c3CCC[C@H]4n3cccn3)c2)C1=O` [Compound 34, (4R)-1-[3-[2-[(3R)-3-hydroxy-1-methyl-2-oxo-pyrrolidin-3-yl]ethynyl]phenyl]-4-pyrazol-1-yl-4,5,6,7-tetrahydro-indazole-3-carboxamide], the Ki was determined as 0.606 µM.

Turning to `CN1CC[C@@](O)(C#Cc2cccc(-n3nc(C(N)=O)c4c3CCC[C@@H]4NC(=O)C3CC3)c2)C1=O` [Compound 37, (4S)-4-(cyclopropanecarbo-nylamino)-1-[3-[2-[(3R)-3-hydroxy-1-methyl-2-oxo-pyrrolidin-3-yl]ethynyl]phen-yl]-4,5,6,7-tetrahydroindazole-3-carboxamide], the inhibition constant Ki was determined as 0.193 µM.

`CN1CC[C@@](O)(C#Cc2cccc(-n3nc(C(N)=O)c4c3CCC[C@@H]4n3cccn3)c2)C1=O` [Compound 38, (4S)-1-[3-[2-[(3R)-3-hydroxy-1-methyl-2-oxo-pyrrolidin-3-yl]ethynyl]phenyl]-4-pyrazol-1-yl-4,5,6,7-tetrahydro-indazole-3-carboxamide]: the inhibition constant (Ki) was determined as 0.0101 µM.

The values are drawn from patent US9605005B2, “Alkynyl alcohols and methods of use” (Genentech, Inc., priority 2013, dated 2017).
